Source: patent US10399974B2, “N2-phenyl-pyrido[3,4-D]pyrimidine-2, 8-diamine derivatives and their use as Mps1 inhibitors” (Cancer Research Technology Limited, priority 2014, dated 2019)

Target: full length MPS1 (Homo sapiens (Human), UniProt P33981)
Experiment: Measurement of Inhibition of MPS1 Kinase
Type: biochemical
Settings: full length MPS1 12.5 nM or 3 nM, H236 peptide 5 μM, ATP 10 μM, 60 min at room temperature, Caliper EZ reader II; read-out: MPS1 IC50
Description: Measurement of Inhibition of MPS1 Kinase
(5 μM), ATP (10 μM), either DMSO (1% v/v) or the test compound (in the range 0.25 nM-100 μM in 1% DMSO) and assay buffer (50 mM HEPES (pH 7.0), 0.02% NaN3, 0.01% BSA, 0.1 mM Orthovandate, […], 1 μM DTT, Roche protease inhibitor). The reaction was carried out for 60 min at room temperature and stopped by the addition of buffer (10 μl) containing 20 mM EDTA, 0.05% (v/v) Brij-35, in 0.1M HEPES-buffered saline (Free acid, Sigma, UK). The plate was read on a Caliper EZ reader II (Caliper Life Sciences).
The reader provides a Software package (‘Reviewer’) which converts the peak heights into % conversion by measuring both product and substrate peak and also allows selection of control well which represent 0% and 100% inhibition, respectively. The % inhibition of the compounds is calculated relative to the means of selected control wells. IC50s are determined by testing the compounds at a range of concentrations from 0.25 nM-100 μM. The % inhibitions at each concentration are then fitted to a 4 parameter logistic fit: y=(a+((b−a)/(1+((c/x^d)))) where a=asym min, b=asym max, c=IC50 and d=hill coefficient

Chain of full length MPS1 (P33981 whole entry): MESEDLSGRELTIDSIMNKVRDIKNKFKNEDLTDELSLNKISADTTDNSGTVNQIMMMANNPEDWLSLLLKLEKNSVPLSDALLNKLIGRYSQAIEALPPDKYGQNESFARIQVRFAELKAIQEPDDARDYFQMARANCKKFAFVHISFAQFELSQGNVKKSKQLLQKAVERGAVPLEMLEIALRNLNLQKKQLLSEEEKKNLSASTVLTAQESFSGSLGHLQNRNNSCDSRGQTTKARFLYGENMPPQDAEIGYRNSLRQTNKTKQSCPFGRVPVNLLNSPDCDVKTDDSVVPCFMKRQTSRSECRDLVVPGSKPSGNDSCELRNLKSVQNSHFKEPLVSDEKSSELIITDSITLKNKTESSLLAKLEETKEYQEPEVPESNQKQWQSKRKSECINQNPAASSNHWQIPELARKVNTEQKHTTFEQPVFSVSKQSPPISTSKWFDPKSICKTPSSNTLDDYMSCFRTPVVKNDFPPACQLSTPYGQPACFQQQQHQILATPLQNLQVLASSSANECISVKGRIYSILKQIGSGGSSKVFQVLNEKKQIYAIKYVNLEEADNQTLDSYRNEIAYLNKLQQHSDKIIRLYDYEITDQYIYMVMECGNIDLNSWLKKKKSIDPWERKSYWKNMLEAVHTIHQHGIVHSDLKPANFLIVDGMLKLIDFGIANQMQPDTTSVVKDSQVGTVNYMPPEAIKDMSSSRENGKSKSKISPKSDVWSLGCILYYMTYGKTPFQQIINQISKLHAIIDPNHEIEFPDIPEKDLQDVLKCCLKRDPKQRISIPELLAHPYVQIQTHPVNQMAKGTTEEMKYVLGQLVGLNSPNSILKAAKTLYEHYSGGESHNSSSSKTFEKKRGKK

IC50	Structure (SMILES)
2 nM	CCOc1cc(-c2nncn2C)ccc1Nc1ncc2cc(C)nc(N3CC(C)(OC)C3)c2n1 [Example 30, N-(2-ethoxy-4-(4-methyl-4H-1,2,4-triazol-3-yl)phenyl)-8-(3-methoxy-3-methylazetidin-1-yl)-6-methylpyrido[3,4-d]pyrimidin-2-amine]
2 nM	CCOc1cc(-c2nncn2C)ccc1Nc1ncc2cc(C)nc(N3CC4(CCO4)C3)c2n1 [Example 36, N-(2-ethoxy-4-(4-methyl-4H-1,2,4-triazol-3-yl)phenyl)-6-methyl-8-(1-oxa-6-azaspiro[3.3]heptan-6-yl)pyrido[3,4-d]pyrimidin-2-amine]
3 nM	CCOc1cc(-c2nncn2C)ccc1Nc1ncc2cc(C)nc(N3CCOC(C)C3)c2n1 (racemic) [Example 48, Racemic-N-(2-ethoxy-4-(4-methyl-4H-1,2,4-triazol-3-yl)phenyl)-6-methyl-8-(2-methylmorpholino)pyrido[3,4-d]pyrimidin-2-amine]
20 nM	CCOc1cc(-c2nnc(C)n2C)ccc1Nc1ncc2cc(C)nc(N3CC(C)(C)C3)c2n1 [Example 22, N-(4-(4,5-dimethyl-4H-1,2,4-triazol-3-yl)-2-ethoxyphenyl)-8-(3,3-dimethylazetidin-1-yl)-6-methylpyrido[3,4-d]pyrimidin-2-amine]
2 nM	CCOc1cc(-c2nncn2C)ccc1Nc1ncc2cc(C)nc(NCC3(C)CCOC3)c2n1 (centres unmarked) [Example 2, N2-(2-ethoxy-4-(4-methyl-4H-1,2,4-triazol-3-yl)phenyl)-6-methyl-N8-((3-methyltetrahydrofuran-3-yl)methyl)pyrido[3,4-d]pyrimidine-2,8-diamine]
6 nM	CCOc1cc(-c2nncn2C)ccc1Nc1ncc2cc(C)nc(N3CCCC3)c2n1 [Example 56, N-(2-ethoxy-4-(4-methyl-4H-1,2,4-triazol-3-yl)phenyl)-6-methyl-8-(pyrrolidin-1-yl)pyrido[3,4-d]pyrimidin-2-amine]
4 nM	COc1cc(-c2ncc(C)n2C)ccc1Nc1ncc2cc(C)nc(NCC(C)(C)C)c2n1 [Example 18, N2-(4-(1,5-dimethyl-1H-imidazol-2-yl)-2-methoxyphenyl)-6-methyl-N8-neopentylpyrido[3,4-d]pyrimidine-2,8-diamine]
4 nM	CCOc1cc(-c2nncn2C)ccc1Nc1ncc2cc(C)nc(N3CC(C)(O)C3)c2n1 [Example 9, 1-(2-((2-ethoxy-4-(4-methyl-4H-1,2,4-triazol-3-yl)phenyl)amino)-6-methylpyrido[3,4-d]pyrimidin-8-yl)-3-methylazetidin-3-ol]
2 nM	CCOc1cc(-c2nncn2C)ccc1Nc1ncc2cc(C)nc(N3CCC(O)CC3)c2n1 [Example 52, 1-(2-(2-ethoxy-4-(4-methyl-4H-1,2,4-triazol-3-yl)phenylamino)-6-methylpyrido[3,4-d]pyrimidin-8-yl)piperidin-4-ol]
1 nM	COc1cc(-c2nnc(C)n2C)ccc1Nc1ncc2cc(C)nc(NCC(C)(C)C)c2n1 [Example 21, N2-(4-(4,5-dimethyl-4H-1,2,4-triazol-3-yl)-2-methoxyphenyl)-6-methyl-N8-neopentylpyrido[3,4-d]pyrimidine-2,8-diamine]
3 nM	CCOc1cc(-c2nncn2C)ccc1Nc1ncc2cc(C)nc(N3CCC(C)(O)C3)c2n1 (centres unmarked) [Example 37, 1-(2-((2-ethoxy-4-(4-methyl-4H-1,2,4-triazol-3-yl)phenyl)amino)-6-methylpyrido[3,4-d]pyrimidin-8-yl)-3-methylpyrrolidin-3-ol]
5 nM	CCOc1cc(-c2nncn2C)ccc1Nc1ncc2cc(C)nc(NC3CCOCC3)c2n1 [Example 6, N2-(2-ethoxy-4-(4-methyl-4H-1,2,4-triazol-3-yl)phenyl)-6-methyl-N8-(tetrahydro-2H-pyran-4-yl)pyrido[3,4-d]pyrimidine-2,8-diamine]
5 nM	COc1cc(-c2cnc(C)n2C)ccc1Nc1ncc2cc(C)nc(N3CC(C)(C)C3)c2n1 [Example 19, N-(4-(1,2-dimethyl-1H-imidazol-5-yl)-2-methoxyphenyl)-8-(3,3-dimethylazetidin-1-yl)-6-methylpyrido[3,4-d]pyrimidin-2-amine]
4 nM	CCOc1cc(-c2nncn2C)ccc1Nc1ncc2cc(C)nc(N3CC4(CCC4)C3)c2n1 [Example 55, N-(2-ethoxy-4-(4-methyl-4H-1,2,4-triazol-3-yl)phenyl)-6-methyl-8-(2-azaspiro[3.3]heptan-2-yl)pyrido[3,4-d]pyrimidin-2-amine]
6 nM	CCOc1cc(-c2nncn2CC)ccc1Nc1ncc2cc(C)nc(N3CC(C)(C)C3)c2n1 [Example 25, 8-(3,3-dimethylazetidin-1-yl)-N-(2-ethoxy-4-(4-ethyl-4H-1,2,4-triazol-3-yl)phenyl)-6-methylpyrido[3,4-d]pyrimidin-2-amine]
8 nM	CCOc1cc(-c2nncn2C)ccc1Nc1ncc2cc(C)nc(NCC3(O)CC3)c2n1 [Example 31, 1-(((2-((2-ethoxy-4-(4-methyl-4H-1,2,4-triazol-3-yl)phenyl)amino)-6-methylpyrido[3,4-d]pyrimidin-8-yl)amino)methyl)cyclopropanol]
4 nM	CCOc1cc(-c2nnc(C)n2C)ccc1Nc1ncc2cc(C)nc(N3CC4(CCOCC4)C3)c2n1 [Example 23, N-(4-(4,5-dimethyl-4H-1,2,4-triazol-3-yl)-2-ethoxyphenyl)-6-methyl-8-(7-oxa-2-azaspiro[3.5]nonan-2-yl)pyrido[3,4-d]pyrimidin-2-amine]
6 nM	CCOc1cc(-c2nncn2C)ccc1Nc1ncc2cc(C)nc(N3CCCC(OC)C3)c2n1 (racemic) [Example 47, Racemic-N-(2-ethoxy-4-(4-methyl-4H-1,2,4-triazol-3-yl)phenyl)-8-(3-methoxypiperidin-1-yl)-6-methylpyrido[3,4-d]pyrimidin-2-amine]
43 nM	COc1cc(-c2oc(C)nc2C)ccc1Nc1ncc2cc(C)nc(NCC(C)(C)C)c2n1 [Example 17, N2-(4-(2,4-dimethyloxazol-5-yl)-2-methoxyphenyl)-6-methyl-N8-neopentylpyrido[3,4-d]pyrimidine-2,8-diamine]
2 nM	CCOc1cc(-c2nncn2C)ccc1Nc1ncc2cc(C)nc(N3CCC(C)(C#N)CC3)c2n1 [Example 28, 1-(2-((2-ethoxy-4-(4-methyl-4H-1,2,4-triazol-3-yl)phenyl)amino)-6-methylpyrido[3,4-d]pyrimidin-8-yl)-4-methylpiperidine-4-carbonitrile]

Structure (SMILES)	IC50
CCOc1cc(-c2nncn2C)ccc1Nc1ncc2cc(C)nc(N3CCC3(C)C)c2n1 [Example 42, 8-(2,2-dimethylazetidin-1-yl)-N-(2-ethoxy-4-(4-methyl-4H-1,2,4-triazol-3-yl)phenyl)-6-methylpyrido[3,4-d]pyrimidin-2-amine]	10 nM
CCOc1cc(-c2nncn2C)ccc1Nc1ncc2cc(C)nc(N[C@H](C)C(C)(C)C)c2n1 [Example 53, (R)-N8-(3,3-dimethylbutan-2-yl)-N2-(2-ethoxy-4-(4-methyl-4H-1,2,4-triazol-3-yl)phenyl)-6-methylpyrido[3,4-d]pyrimidine-2,8-diamine]	5 nM
CCOc1cc(-c2nncn2C)ccc1Nc1ncc2cc(C)nc(N3CC(C)(C#N)C3)c2n1 [Example 3, 1-(2-((2-ethoxy-4-(4-methyl-4H-1,2,4-triazol-3-yl)phenyl)amino)-6-methylpyrido[3,4-d]pyrimidin-8-yl)-3-methylazetidine-3-carbonitrile]	3 nM
